This passage reports Ki results from BindingDB's records for doi:10.1016/0166-4328(96)00089-7 (Glaxo Research and Development, 1996).

Assay [1] deals with 5-hydroxytryptamine receptor 4 (Cavia porcellus, UniProt O70528).
Assay [2] concerns the target 5-hydroxytryptamine receptor 2A (Rattus norvegicus, UniProt P14842).
Assay [3] addresses T1, 5-hydroxytryptamine receptor 3A (Rattus norvegicus, UniProt P35563).
T1 sequence (P35563 whole entry): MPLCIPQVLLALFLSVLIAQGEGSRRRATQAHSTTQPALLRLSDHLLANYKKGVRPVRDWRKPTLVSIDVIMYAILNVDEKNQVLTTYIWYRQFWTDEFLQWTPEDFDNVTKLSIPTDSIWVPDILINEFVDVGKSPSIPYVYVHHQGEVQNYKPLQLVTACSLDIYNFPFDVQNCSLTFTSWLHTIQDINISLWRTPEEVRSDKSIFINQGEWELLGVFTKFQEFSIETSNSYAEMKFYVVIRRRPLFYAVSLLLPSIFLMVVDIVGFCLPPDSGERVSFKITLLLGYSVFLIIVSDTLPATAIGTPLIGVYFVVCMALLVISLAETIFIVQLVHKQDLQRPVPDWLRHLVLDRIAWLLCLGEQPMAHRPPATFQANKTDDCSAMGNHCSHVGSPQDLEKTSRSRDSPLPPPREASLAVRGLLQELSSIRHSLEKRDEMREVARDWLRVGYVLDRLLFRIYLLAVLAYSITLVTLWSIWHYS

The target of assay [4] is T2, 5-hydroxytryptamine receptor 2C (Sus scrofa, UniProt G7ZKZ7).
T2 sequence (G7ZKZ7 whole entry): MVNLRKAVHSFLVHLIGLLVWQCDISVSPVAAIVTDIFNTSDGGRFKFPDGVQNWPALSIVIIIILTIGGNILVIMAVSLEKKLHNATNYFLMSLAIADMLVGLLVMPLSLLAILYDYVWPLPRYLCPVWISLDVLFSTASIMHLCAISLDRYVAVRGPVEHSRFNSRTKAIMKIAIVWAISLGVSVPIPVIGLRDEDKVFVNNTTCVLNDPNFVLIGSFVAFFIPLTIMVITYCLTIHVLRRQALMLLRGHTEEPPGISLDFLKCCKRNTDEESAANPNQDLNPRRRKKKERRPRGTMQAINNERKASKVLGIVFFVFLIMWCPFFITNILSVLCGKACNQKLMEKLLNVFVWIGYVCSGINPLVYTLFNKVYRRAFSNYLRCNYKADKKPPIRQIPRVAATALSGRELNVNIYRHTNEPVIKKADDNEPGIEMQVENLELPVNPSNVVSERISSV

Assay [5] deals with 5-hydroxytryptamine receptor 5A (Homo sapiens, UniProt P47898).

pKi: −log10 of the molar value.

Chain of 5-hydroxytryptamine receptor 2A (P14842 whole entry): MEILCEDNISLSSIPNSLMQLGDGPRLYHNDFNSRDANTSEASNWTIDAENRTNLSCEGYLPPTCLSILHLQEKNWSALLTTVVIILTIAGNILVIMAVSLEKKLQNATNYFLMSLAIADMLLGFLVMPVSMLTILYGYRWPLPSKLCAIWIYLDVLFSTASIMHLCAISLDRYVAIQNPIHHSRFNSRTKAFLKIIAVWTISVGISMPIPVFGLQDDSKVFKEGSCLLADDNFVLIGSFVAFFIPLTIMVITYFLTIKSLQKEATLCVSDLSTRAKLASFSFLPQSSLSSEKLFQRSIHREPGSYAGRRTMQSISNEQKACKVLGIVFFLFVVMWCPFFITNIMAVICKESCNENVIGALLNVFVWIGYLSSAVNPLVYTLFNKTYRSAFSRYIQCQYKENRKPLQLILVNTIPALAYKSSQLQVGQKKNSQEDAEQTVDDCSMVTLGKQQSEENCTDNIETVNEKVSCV
Chain of 5-hydroxytryptamine receptor 4 (O70528 whole entry): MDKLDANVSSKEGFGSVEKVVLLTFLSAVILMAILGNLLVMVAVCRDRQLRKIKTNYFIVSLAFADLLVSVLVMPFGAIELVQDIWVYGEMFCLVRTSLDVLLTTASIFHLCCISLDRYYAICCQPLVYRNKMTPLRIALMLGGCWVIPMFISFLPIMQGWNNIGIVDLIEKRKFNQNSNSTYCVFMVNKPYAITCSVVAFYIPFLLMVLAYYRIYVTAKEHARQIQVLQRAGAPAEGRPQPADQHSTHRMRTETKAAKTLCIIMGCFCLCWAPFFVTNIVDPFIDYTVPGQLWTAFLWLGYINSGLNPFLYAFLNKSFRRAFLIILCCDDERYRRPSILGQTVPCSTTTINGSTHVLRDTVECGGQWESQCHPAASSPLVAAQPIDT
Chain of 5-hydroxytryptamine receptor 5A (P47898 whole entry): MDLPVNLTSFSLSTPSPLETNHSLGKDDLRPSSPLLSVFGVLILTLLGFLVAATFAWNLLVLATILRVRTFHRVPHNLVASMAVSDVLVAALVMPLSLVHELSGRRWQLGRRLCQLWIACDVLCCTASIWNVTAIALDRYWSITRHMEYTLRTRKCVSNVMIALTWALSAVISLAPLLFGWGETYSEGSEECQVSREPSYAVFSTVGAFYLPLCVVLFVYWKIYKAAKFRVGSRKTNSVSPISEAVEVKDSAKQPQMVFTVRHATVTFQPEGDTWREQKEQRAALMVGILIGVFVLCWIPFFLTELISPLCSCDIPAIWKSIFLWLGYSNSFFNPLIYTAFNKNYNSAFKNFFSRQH

For `COc1ccc(NC(=O)c2ccc(-c3ccc(-c4noc(C)n4)cc3C)cc2)cc1N1CCN(C)CC1` [SMR001230745], the pKi is under 5.00 in assay [1]; 7.40 in assay [2]; 5.20 in assay [3]; 6.20 in assay [4]; 5.20 in assay [5].

As usually defined, the pKi is the Ki on a negative log10 scale, so that one unit is a factor of ten. Low readings indicate a high Ki, high ones a low Ki.
